Where two headings read alike, the source gives them in different places.
Molecular target: human CB2R (Homo sapiens, UniProt P34972)
Experiment: CB2R mediated modulation of cAMP synthesis
Format: cell-based
Procedure: B. CB2R Mediated Modulation of cAMP Synthesis:
Compounds of the invention were evaluated for their CB2 agonist or inverse agonistic activity in accordance with the following experimental method.
CHO cells expressing human CB2R (Euroscreen) were plated at a density of 5000 cells per well in 384 well plates and incubated overnight at 37° C. After removing the media, the cells were treated with test compounds diluted in stimulation buffer containing 1 mM IBMX, 0.25% BSA and 10 uM Forskolin. The assay was incubated for 30 minutes at 37° C. Cells were lysed and the cAMP concentration was measured using DiscoverX-XS cAMP kit, following the manufacturer's protocol. In this setting, agonists will decrease forskolin induced production of cAMP while inverse agonists will further increase forskolin induced production of cAMP. EC50 of agonists were calculated as follows. The maximal amount of cAMP produced by forskolin compared to the level of cAMP inhibited by 1 uM CP55940 is defined as 100%. […] Data was analyzed using a four-parameter logistic model. (Model 205 of XLfit 4.0).

[1] = CHO cells expressing human CB2R, inhibition of forskolin-stimulated cAMP synthesis, mean, read-out: CB2 CAMP @ EC50 nM (mean)

Sequence of human CB2R (P34972 whole entry): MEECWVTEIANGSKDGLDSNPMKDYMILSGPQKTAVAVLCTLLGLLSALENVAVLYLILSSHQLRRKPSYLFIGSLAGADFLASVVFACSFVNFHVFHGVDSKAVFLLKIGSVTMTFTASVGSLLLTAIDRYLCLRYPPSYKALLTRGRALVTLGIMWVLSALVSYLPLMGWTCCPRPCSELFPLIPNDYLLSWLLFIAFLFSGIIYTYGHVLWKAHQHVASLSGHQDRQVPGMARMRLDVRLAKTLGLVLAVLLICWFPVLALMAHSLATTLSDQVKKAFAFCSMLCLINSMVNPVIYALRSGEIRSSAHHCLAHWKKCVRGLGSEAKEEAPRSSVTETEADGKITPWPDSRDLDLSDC

CC(C)(C)c1cc(NC(=O)[C@@H]2CCCN2C(=O)N2CCS(=O)(=O)CC2)on1
EC50: 97.1 nM

CCC(C)c1ccc(NC(=O)[C@@H]2CCC(=O)N2c2ncc(C(F)(F)F)cc2Cl)cc1 (some centres unmarked)
EC50: 28.1 nM

O=C(NCCN1CCN(c2nccc(C(F)(F)F)n2)CC1)[C@@H]1CCCN1c1ccc(Cl)cc1
EC50: 381 nM

CC(C)(C)c1nnc(NC(=O)[C@@H]2CCCN2C2CCCC2(C)C)s1 (some centres unmarked) [1-(2,2-Dimethyl-cyclopentyl)-pyrrolidine-2-carboxylic acid (5-tert-butyl-1,3,4-thiadiazol-2-yl)-amide]
EC50: 445 nM

CC1(C)CC(CN2CCCC2C(=O)Nc2cc(C(C)(C)C)no2)CCO1 (centres unmarked) [1-(2,2-Dimethyl-tetrahydro-pyran-4-ylmethyl)-pyrrolidine-2-carboxylic acid (3-tert-butyl-isoxazol-5-yl)-amide]
EC50: 7.1 nM

CC1CCCCC1N1CCC[C@H]1C(=O)Nc1nnc(C(C)(C)C)s1 (some centres unmarked) [1-(2-Methyl-cyclohexyl)-pyrrolidine-2-carboxylic acid (5-tert-butyl-1,3,4-thiadiazol-2-yl)-amide]
EC50: 255 nM

Cn1nc(C(C)(C)C)cc1NC(=O)C1CCCN1c1ncc(C(F)(F)F)cc1Cl (centres unmarked) [1-(3-Chloro-5-trifluoromethyl-pyridin-2-yl)-pyrrolidine-2-carboxylic acid (5-tert-butyl-2-methyl-2H-pyrazol-3-yl)-amide]
EC50: 112 nM

CC(C)(C)c1cc(NC(=O)C2CCCN2c2ncc(C(F)(F)F)cc2Cl)no1 (centres unmarked) [1-(3-Chloro-5-trifluoromethyl-pyridin-2-yl)-pyrrolidine-2-carboxylic acid (5-tert-butyl-isoxazol-3-yl)-amide]
EC50: 0.0402 nM

O=C(Nc1ccc(C(F)(F)F)cn1)C1CCCN1c1ncc(C(F)(F)F)cc1Cl (centres unmarked) [1-(3-Chloro-5-trifluoromethyl-pyridin-2-yl)-pyrrolidine-2-carboxylic acid (5-trifluoromethyl-pyridin-2-yl)-amide]
EC50 [1]: 23.2 nM

CC(C)(C)c1cc(NC(=O)C2CCCN2c2ccc(Cl)cn2)no1 (centres unmarked) [1-(5-Chloro-pyridin-2-yl)-pyrrolidine-2-carboxylic acid (5-tert-butyl-isoxazol-3-yl)-amide]
EC50: 0.364 nM

O=C(Nc1ccc(C(F)(F)F)cn1)C1CCCN1c1ccc(C(F)(F)F)cn1 (centres unmarked) [1-(5-Trifluoromethyl-pyridin-2-yl)-pyrrolidine-2-carboxylic acid (5-trifluoromethyl-pyridin-2-yl)-amide]
EC50: 328 nM

CC(C)(C)c1cc(NC(=O)[C@@H]2CCCN2CC2CCCCO2)on1 (some centres unmarked) [1-(Tetrahydro-pyran-2-ylmethyl)-pyrrolidine-2-carboxylic acid (3-tert-butyl-isoxazol-5-yl)-amide]
EC50: 0.172 nM

CC(C)N1CCCC1C(=O)Nc1cc(C(C)(C)C)on1 (centres unmarked) [1-isopropyl-pyrrolidine-2-carboxylic acid (5-tert-butyl-isoxazol-3-yl)-amide]
EC50: 30.3 nM

CCC(C)N1CCC[C@H]1C(=O)Nc1nnc(C(C)(C)C)s1 (some centres unmarked) [1-sec-Butyl-pyrrolidine-2-carboxylic acid (5-tert-butyl-1,3,4-thiadiazol-2-yl)-amide]
EC50: 390 nM

CC(C)(C)OC(=O)CCN1CCC[C@H]1C(=O)Nc1cc(C(C)(C)C)no1 [3-[(S)-2-(3-tert-Butyl-isoxazol-5-ylcarbamoyl)-pyrrolidin-l-yl]-propionic acid tert-butyl ester]
EC50 [1]: 20 nM

CC(C)(C)c1cc(NC(=O)[C@@H]2C[C@@H](O)CN2Cc2ccc(F)c(F)c2)on1 [(2S,4R)-1-(3,4-Difluoro-benzyl)-4-hydroxy-pyrrolidine-2-carboxylic acid (3-tert-butyl-isoxazol-5-yl)-amide]
EC50: 6.88 nM

CC(C)(C)c1cc(NC(=O)[C@@H]2C[C@@H](O)CN2Cc2ccc(F)c(F)c2)no1 [(2S,4R)-1-(3,4-Difluoro-benzyl)-4-hydroxy-pyrrolidine-2-carboxylic acid (5-tert-butyl-isoxazol-3-yl)-amide]
EC50: 12.3 nM
